ChEMBL document CHEMBL4049384, “Synthesis and evaluation of an injectable everolimus prodrug” (Bioorg Med Chem Lett, 2017)

Key:
MDA-MB-435 = experiment: Antiproliferative activity against human MDA-MB-435 cells after 48 hrs by MTT assay; assay type: functional, cell-based; settings: MDA-MB-435, 48 h
Blood [1] = experiment: Prodrug conversion in Sprague-Dawley rat blood assessed as everolimus formation at 2 mg/kg, iv after 2 hrs by HPLC analysis; assay type: ADME, organism-based; settings: in vivo
OS-RC-2 [2] = experiment: Antitumor activity against human OS-RC2 cells xenografted in nude mouse assessed as tumor weight at 24 mg/kg, iv administered once weekly measured after 32 days (reference value: 0.68 +/- 0.06 g); assay type: functional
OS-RC-2 [3] = experiment: Antitumor activity against human OS-RC2 cells xenografted in nude mouse assessed as tumor growth inhibition at 1.5 mg/kg, iv administered three times a week measured after 32 days relative to control; assay type: functional; settings: OS-RC-2, iv, 768 h, read-out: TGI
OS-RC-2 [4] = experiment: Antitumor activity against human OS-RC2 cells xenografted in nude mouse assessed as tumor growth inhibition at 24 mg/kg, iv administered once weekly measured after 32 days relative to control; assay type: functional; settings: OS-RC-2, iv, 768 h, read-out: TGI
Rattus norvegicus = experiment: Prodrug conversion in rat assessed as everolimus formation by measuring everolimus AUC at 2 mg/kg, iv; assay type: ADME, organism-based; settings: in vivo
[5] = AUC (0 to infinity) in Sprague-Dawley rat at 2.724 mg/kg, iv; assay type: ADME, organism-based; design: dose 2.724 mg/kg, route intravenous, time infinity; settings: in vivo
[6] = AUC (0 to t) in Sprague-Dawley rat at 2.724 mg/kg, iv; assay type: ADME, organism-based; settings: in vivo
[7] = Cmax in Sprague-Dawley rat at 2.724 mg/kg, iv; assay type: ADME, organism-based; design: dose 2.724 mg/kg, route intravenous; settings: in vivo
Blood [8] = experiment: Prodrug conversion in Sprague-Dawley rat blood assessed as everolimus level at 2.724 mg/kg, iv at 0.0833 hrs post dose by HPLC method; assay type: ADME, organism-based; settings: in vivo, 5 min
Blood [9] = experiment: Prodrug conversion in Sprague-Dawley rat blood assessed as everolimus level at 2.724 mg/kg, iv at 0.25 hrs post dose by HPLC method; assay type: ADME, organism-based; settings: in vivo
Blood [10] = experiment: Prodrug conversion in Sprague-Dawley rat blood assessed as everolimus level at 2.724 mg/kg, iv at 0.5 hrs post dose by HPLC method; assay type: ADME, organism-based; settings: in vivo
Blood [11] = experiment: Prodrug conversion in Sprague-Dawley rat blood assessed as everolimus level at 2.724 mg/kg, iv at 3 hrs post dose by HPLC method; assay type: ADME, organism-based; settings: in vivo
Blood [12] = experiment: Prodrug conversion in Sprague-Dawley rat blood assessed as everolimus level at 2.724 mg/kg, iv at 4 hrs post dose by HPLC method; assay type: ADME, organism-based; settings: in vivo
OS-RC-2 [13] = experiment: Antitumor activity against human OS-RC2 cells xenografted in nude mouse assessed as tumor volume at 1.5 mg/kg, iv administered three times a week measured on day 1 (reference value: 167.51 +/- 17.09 mm3); assay type: functional
OS-RC-2 [14] = experiment: Antitumor activity against human OS-RC2 cells xenografted in nude mouse assessed as reduction in tumor volume at 1.5 mg/kg, iv administered three times a week measured on day 12 relative to control; assay type: functional
OS-RC-2 [15] = experiment: Antitumor activity against human OS-RC2 cells xenografted in nude mouse assessed as reduction in tumor volume at 1.5 mg/kg, iv administered three times a week measured on day 15 relative to control; assay type: functional
OS-RC-2 [16] = experiment: Antitumor activity against human OS-RC2 cells xenografted in nude mouse assessed as reduction in tumor volume at 1.5 mg/kg, iv administered three times a week measured on day 19 relative to control; assay type: functional
OS-RC-2 [17] = experiment: Antitumor activity against human OS-RC2 cells xenografted in nude mouse assessed as reduction in tumor volume at 1.5 mg/kg, iv administered three times a week measured on day 29 relative to control; assay type: functional
OS-RC-2 [18] = experiment: Antitumor activity against human OS-RC2 cells xenografted in nude mouse assessed as reduction in tumor volume at 24 mg/kg, iv administered once weekly measured on day 5 relative to control; assay type: functional
OS-RC-2 [19] = experiment: Antitumor activity against human OS-RC2 cells xenografted in nude mouse assessed as reduction in tumor volume at 24 mg/kg, iv administered once weekly measured on day 12 relative to control; assay type: functional
OS-RC-2 [20] = experiment: Antitumor activity against human OS-RC2 cells xenografted in nude mouse assessed as reduction in tumor volume at 24 mg/kg, iv administered once weekly measured on day 15 relative to control; assay type: functional
OS-RC-2 [21] = experiment: Antitumor activity against human OS-RC2 cells xenografted in nude mouse assessed as reduction in tumor volume at 24 mg/kg, iv administered once weekly measured on day 22 relative to control; assay type: functional
OS-RC-2 [22] = experiment: Antitumor activity against human OS-RC2 cells xenografted in nude mouse assessed as reduction in tumor volume at 24 mg/kg, iv administered once weekly measured on day 26 relative to control; assay type: functional
OS-RC-2 [23] = experiment: Antitumor activity against human OS-RC2 cells xenografted in nude mouse assessed as reduction in tumor volume at 24 mg/kg, iv administered once weekly measured on day 29 relative to control; assay type: functional
OS-RC-2 [24] = experiment: Antitumor activity against human OS-RC2 cells xenografted in nude mouse assessed as reduction in tumor volume at 24 mg/kg, iv administered once weekly measured on day 32 relative to control; assay type: functional
Mus musculus [25] = experiment: Toxicity in nude mouse xenografted with human OS-RC2 cells assessed as body weight loss at 1.5 mg/kg administered three times a week intravenously and measured on Day 5 (reference value: 1.9 %); assay type: organism-based; settings: in vivo, iv
Mus musculus [26] = experiment: Toxicity in nude mouse xenografted with human OS-RC2 cells assessed as body weight loss at 1.5 mg/kg administered three times a week intravenously and measured on Day 8 (reference value: 8.5 %); assay type: organism-based; settings: in vivo, iv
Mus musculus [27] = experiment: Toxicity in nude mouse xenografted with human OS-RC2 cells assessed as body weight loss at 1.5 mg/kg, iv administered three times a week measured on Day 15 (reference value: 20.2 %); assay type: organism-based; settings: in vivo
Mus musculus [28] = experiment: Toxicity in nude mouse xenografted with human OS-RC2 cells assessed as body weight loss at 1.5 mg/kg administered three times a week intravenously and measured on Day 19 (reference value: 23.1 %); assay type: organism-based; settings: in vivo, iv
Mus musculus [29] = experiment: Toxicity in nude mouse xenografted with human OS-RC2 cells assessed as body weight loss at 1.5 mg/kg administered three times a week intravenously and measured on Day 26 (reference value: 28.2 %); assay type: organism-based; settings: in vivo, iv
Mus musculus [30] = experiment: Toxicity in nude mouse xenografted with human OS-RC2 cells assessed as body weight loss at 24 mg/kg, iv administered once weekly measured on day 12 (reference value: 15 %); assay type: organism-based; settings: in vivo
Mus musculus [31] = experiment: Toxicity in nude mouse xenografted with human OS-RC2 cells assessed as body weight loss at 24 mg/kg, iv administered once weekly measured on day 19 (reference value: 23.1 %); assay type: organism-based; settings: in vivo
Mus musculus [32] = experiment: Toxicity in nude mouse xenografted with human OS-RC2 cells assessed as body weight loss at 24 mg/kg, iv administered once weekly measured on day 22 (reference value: 23.1 %); assay type: organism-based; settings: in vivo
Mus musculus [33] = experiment: Toxicity in nude mouse xenografted with human OS-RC-2 cells assessed as body weight at 24 mg/kg, iv administered once weekly measured on day 1 (reference value: 20.4 +/- 0.33 g); assay type: organism-based; settings: in vivo
Mus musculus [34] = experiment: Toxicity in nude mouse xenografted with human OS-RC-2 cells assessed as death at 1.5 mg/kg, iv administered three times a week measured after 32 days; assay type: organism-based; settings: in vivo, 768 h

SMILES: CO[C@H]1C[C@@H]2CC[C@@H](C)[C@@](O)(O2)C(=O)C(=O)N2CCCC[C@H]2C(=O)O[C@H]([C@H](C)C[C@@H]2CC[C@@H](OCCOC(=O)CSC[C@H](NC(=O)CC[C@H](N)C(=O)O)C(=O)NCC(=O)O)[C@H](OC)C2)CC(=O)[C@H](C)/C=C(\C)[C@@H](O)[C@@H](OC)C(=O)[C@H](C)C[C@H](C)\C=C/C=C/C=C/1C
- IC50 (MDA-MB-435): 55.3 µM
- Drug metabolism (Blood [1]): Metabolite_Detected
- Activity (OS-RC-2 [2]): 0.26 g
- inhibition in vivo at 1.5 mg/kg (OS-RC-2 [3]): 57.1%
- inhibition in vivo at 24 mg/kg (OS-RC-2 [4]): 60.6%
- AUC (Rattus norvegicus): 2500 ng·h/mL
- AUC(0-inf) [5]: 2510 ng·h/mL
- AUC(0-t) [6]: 2490 ng·h/mL
- Cmax [7]: 8420 ng/mL
- Drug metabolism (Blood [8]): 8421.1173 ng/mL
- Drug metabolism (Blood [9]): 1995.0467 ng/mL
- Drug metabolism (Blood [10]): 326.1655 ng/mL
- Drug metabolism (Blood [11]): 16.9443 ng/mL
- Drug metabolism (Blood [12]): 13.8243 ng/mL
- Activity (OS-RC-2 [13]): 167.6 mm3
- T/C (OS-RC-2 [14]): 0.6%
- T/C (OS-RC-2 [15]): 0.55%
- T/C (OS-RC-2 [16]): 0.57%
- T/C (OS-RC-2 [17]): 0.54%
- T/C (OS-RC-2 [18]): 0.55%
- T/C (OS-RC-2 [19]): 0.47%
- T/C (OS-RC-2 [20]): 0.41%
- T/C (OS-RC-2 [21]): 0.55%
- T/C (OS-RC-2 [22]): 0.55%
- T/C (OS-RC-2 [23]): 0.54%
- T/C (OS-RC-2 [24]): 0.53%
- Activity (Mus musculus [25]): 6.8%
- Activity (Mus musculus [26]): 9.2%
- Activity (Mus musculus [27]): 12%
- Activity (Mus musculus [28]): 11.5%
- Activity (Mus musculus [29]): 13.1%
- Activity (Mus musculus [30]): 6.3%
- Activity (Mus musculus [31]): 10.2%
- Activity (Mus musculus [32]): 10.2%
- Activity (Mus musculus [33]): 21.28 g
- Activity (Mus musculus [34]): Non-Toxic
